ChEMBL document CHEMBL1159029, “An Epoxydon-Derived Ester from a Phoma sp. Pathogenic to Rhubarb” (1992)

Assays:
Penicillium chrysogenum [1] = assay: Antimicrobial activity against Penicillium notatum AT-9479 at 0.5 mg/disk by disk assay; assay type: functional
Chenopodium album = assay: Phytotoxicity against Chenopodium album assessed as brownish-black necrotic lesion area at 50 ug within 48 hrs by detached leaf assay; assay type: functional
Escherichia coli [2] = assay: Antimicrobial activity against Escherichia coli DH 5alpha at 0.5 mg/disk by disk assay; assay type: functional
Aspergillus flavus [3] = assay: Antimicrobial activity against Aspergillus flavus AF3357 at 0.25 mg/disk by disk assay; assay type: functional, AF-3357
Escherichia coli [4] = assay: Antimicrobial activity against Escherichia coli DH 5alpha at 0.25 mg/disk by disk assay; assay type: functional
[5] = test system: Pectobacterium carotovorum; assay: Antimicrobial activity against Erwinia carotovora EC-14 at 0.25 mg/disk by disk assay; assay type: functional
Colletotrichum acutatum [6] = assay: Antimicrobial activity against Colletotrichum acutatum NC 1618 at 0.25 mg/disk by disk assay; assay type: functional
[7] = test system: Curtobacterium flaccumfaciens; assay: Antimicrobial activity against Corynebacterium flaccumfaciens CF-20 at 0.25 mg/disk by disk assay; assay type: functional
[8] = test system: Pectobacterium carotovorum; assay: Antimicrobial activity against Erwinia carotovora EC-14 at 0.5 mg/disk by disk assay; assay type: functional
Penicillium chrysogenum [9] = assay: Antimicrobial activity against Penicillium notatum AT-9479 at 0.25 mg/disk by disk assay; assay type: functional
Ipomoea = assay: Phytotoxicity against Ipomoea sp. assessed as brownish-black necrotic lesion area at 50 ug within 48 hrs by detached leaf assay; assay type: functional
Colletotrichum acutatum [10] = assay: Antimicrobial activity against Colletotrichum acutatum NC 1618 at 0.5 mg/disk by disk assay; assay type: functional
Sida spinosa = assay: Phytotoxicity against Sida spinosa assessed as brownish-black necrotic lesion area at 50 ug within 48 hrs by detached leaf assay; assay type: functional
[11] = test system: Curtobacterium flaccumfaciens; assay: Antimicrobial activity against Corynebacterium flaccumfaciens CF-20 at 0.5 mg/disk by disk assay; assay type: functional
Nasturtium officinale = assay: Phytotoxicity against Nasturtium officinale assessed as brownish-black necrotic lesions area at 50 ug within 48 hrs by detached leaf assay; assay type: functional
Sorghum bicolor = assay: Phytotoxicity against Sorghum bicolor assessed as brownish-black necrotic lesion area at 50 ug within 48 hrs by detached leaf assay; assay type: functional
Aspergillus flavus [12] = assay: Antimicrobial activity against Aspergillus flavus AF3357 at 0.5 mg/disk by disk assay; assay type: functional, AF-3357
[13] = test system: Agrobacterium tumefaciens; assay: Antimicrobial activity against Agrobacterium tumefaciens C-58 at 0.5 mg/disk by disk assay; assay type: functional
Datura stramonium = assay: Phytotoxicity against Datura stramonium assessed as brownish-black necrotic lesion area at 50 ug within 48 hrs by detached leaf assay; assay type: functional
Senna obtusifolia = assay: Phytotoxicity against Senna obtusifolia assessed as brownish-black necrotic lesion area at 50 ug within 48 hrs by detached leaf assay; assay type: functional
Sorghum halepense = assay: Phytotoxicity against Sorghum halepense assessed as brownish-black necrotic lesion area at 50 ug within 48 hrs by detached leaf assay; assay type: functional
Rheum rhabarbarum = assay: Phytotoxicity against Rhubarb assessed as brownish-black necrotic lesion area at 50 ug up to 48 hrs by detached leaf assay; assay type: functional
[14] = test system: Agrobacterium tumefaciens; assay: Antimicrobial activity against Agrobacterium tumefaciens C-58 at 0.25 mg/disk by disk assay; assay type: functional
[15] = test system: Pectobacterium carotovorum; assay: Antimicrobial activity against Erwinia carotovora EC-14 at 1 mg/disk by disk assay; assay type: functional
Colletotrichum acutatum [16] = assay: Antimicrobial activity against Colletotrichum acutatum NC 1618 at 1 mg/disk by disk assay; assay type: functional
Escherichia coli [17] = assay: Antimicrobial activity against Escherichia coli DH 5alpha at 1 mg/disk by disk assay; assay type: functional
[18] = test system: Curtobacterium flaccumfaciens; assay: Antimicrobial activity against Corynebacterium flaccumfaciens CF-20 at 1 mg/disk by disk assay; assay type: functional
Penicillium chrysogenum [19] = assay: Antimicrobial activity against Penicillium notatum AT-9479 at 1 mg/disk by disk assay; assay type: functional
Aspergillus flavus [20] = assay: Antimicrobial activity against Aspergillus flavus AF3357 at 1 mg/disk by disk assay; assay type: functional, AF-3357
[21] = test system: Agrobacterium tumefaciens; assay: Antimicrobial activity against Agrobacterium tumefaciens C-58 at 1 mg/disk by disk assay; assay type: functional
Phoma = assay: Antimicrobial activity against Phoma sp. at 0.5 mg/disk by disk assay; assay type: functional

SMILES	Diameter of inhibition zone (Penicillium chrysogenum [1])	Activity (Chenopodium album)	Diameter of inhibition zone (Escherichia coli [2])	Diameter of inhibition zone (Aspergillus flavus [3])	Diameter of inhibition zone (Escherichia coli [4])	Diameter of inhibition zone [5]	Diameter of inhibition zone (Colletotrichum acutatum [6])	Diameter of inhibition zone [8]	Activity (Ipomoea)	Diameter of inhibition zone (Colletotrichum acutatum [10])	Activity (Sida spinosa)	Diameter of inhibition zone [11]	Activity (Nasturtium officinale)	Activity (Sorghum bicolor)	Diameter of inhibition zone (Aspergillus flavus [12])	Diameter of inhibition zone [13]	Activity (Datura stramonium)	Activity (Senna obtusifolia)	Activity (Sorghum halepense)	Activity (Rheum rhabarbarum)	also measured
O=C1C(CO)=C[C@@H](O)[C@H]2O[C@@H]12 [EPOXYDON]	10 mm	62 mm2	25.3 mm	0 mm	18 mm	9 mm	10 mm	17 mm	51 mm2	12 mm	25 mm2	20 mm	41 mm2	31 mm2	8 mm	12 mm	31 mm2	17 mm2	37 mm2	27 mm2	Diameter of inhibition zone [7]: 12 mm; Diameter of inhibition zone (Penicillium chrysogenum [9]): 0 mm; Diameter of inhibition zone [14]: 10 mm
Cc1cccc(O)c1C(=O)O	12 mm	27 mm2	0 mm					0 mm	15 mm2	8 mm	23 mm2	16 mm	17 mm2	37 mm2	10 mm	18 mm	48 mm2	11 mm2	15 mm2	55 mm2	Diameter of inhibition zone [15]: 0 mm; Diameter of inhibition zone (Colletotrichum acutatum [16]): 22 mm; Diameter of inhibition zone (Escherichia coli [17]): 0 mm; Diameter of inhibition zone [18]: 21 mm; Diameter of inhibition zone (Penicillium chrysogenum [19]): 18 mm; Diameter of inhibition zone (Aspergillus flavus [20]): 17 mm; Diameter of inhibition zone [21]: 25 mm; Diameter of inhibition zone (Phoma): 16 mm
CC1=C[C@@H](O)[C@H]2O[C@H]2C1=O [DESOXYEPOXYDON]	27 mm	57 mm2	44 mm	15 mm	35 mm	31 mm	40 mm	45 mm	64 mm2	60 mm	74 mm2	49 mm	34 mm2	69 mm2	22 mm	56 mm	73 mm2	51 mm2	30 mm2	42 mm2	Diameter of inhibition zone [7]: 38 mm; Diameter of inhibition zone (Penicillium chrysogenum [9]): 15 mm; Diameter of inhibition zone (Phoma): 30 mm; Diameter of inhibition zone [14]: 43 mm
Cc1cccc(O)c1C(=O)O[C@@H]1C(=O)C(CO)=C[C@@H](O)[C@H]1O		13 mm2							21 mm2		24 mm2		44 mm2	41 mm2			9 mm2	33 mm2	7 mm2	18 mm2	
